{"source": "patent US10780090B2", "about": "“Heteroaryl compounds useful as inhibitors of SUMO activating enzyme” (Millennium Pharmaceuticals, Inc., priority 2014, dated 2020)", "molecular_target": "recombinant human SAE enzyme (Homo sapiens (Human), UniProt Q9UBT2)", "sequence (Q9UBT2 whole entry)": "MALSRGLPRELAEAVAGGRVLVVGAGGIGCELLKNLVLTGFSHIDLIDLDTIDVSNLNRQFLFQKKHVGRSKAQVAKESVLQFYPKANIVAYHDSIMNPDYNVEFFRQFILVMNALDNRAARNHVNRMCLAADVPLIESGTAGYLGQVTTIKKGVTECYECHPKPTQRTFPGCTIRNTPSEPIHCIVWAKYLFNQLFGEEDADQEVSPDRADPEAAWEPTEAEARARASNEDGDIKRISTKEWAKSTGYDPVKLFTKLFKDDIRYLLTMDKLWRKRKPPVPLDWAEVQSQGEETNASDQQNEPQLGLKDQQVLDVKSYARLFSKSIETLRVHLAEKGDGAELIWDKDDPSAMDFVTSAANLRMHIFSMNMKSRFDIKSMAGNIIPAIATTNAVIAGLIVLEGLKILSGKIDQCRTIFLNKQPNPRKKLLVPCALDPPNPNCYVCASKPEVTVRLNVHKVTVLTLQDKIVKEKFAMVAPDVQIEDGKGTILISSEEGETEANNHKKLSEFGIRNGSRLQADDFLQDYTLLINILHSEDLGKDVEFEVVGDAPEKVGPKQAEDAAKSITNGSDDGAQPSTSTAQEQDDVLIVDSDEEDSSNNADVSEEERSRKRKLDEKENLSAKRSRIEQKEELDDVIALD", "sequence (Q9UBE0 whole entry partner)": "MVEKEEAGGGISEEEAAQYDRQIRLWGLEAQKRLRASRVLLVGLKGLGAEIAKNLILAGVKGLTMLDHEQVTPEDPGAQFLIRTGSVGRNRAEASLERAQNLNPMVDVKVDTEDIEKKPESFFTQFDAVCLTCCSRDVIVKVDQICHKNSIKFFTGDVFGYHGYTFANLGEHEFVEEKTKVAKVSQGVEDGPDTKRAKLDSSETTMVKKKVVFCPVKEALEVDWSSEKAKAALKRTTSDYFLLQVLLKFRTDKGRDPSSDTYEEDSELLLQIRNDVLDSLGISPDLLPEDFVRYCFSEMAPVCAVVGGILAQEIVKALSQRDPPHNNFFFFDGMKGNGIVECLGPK", "experiment": "SAE HTRF enzyme assay", "format": "biochemical", "method_in_brief": "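This HTRF format monitors Sumo-Flag–Ubc9-GST thioester formation catalysed by 0.11 nM human SAE with 0.5 μM ATP over 105 min at 24° C. Inhibition is expressed at a single concentration or as IC50.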", "key": {"[1]": {"details": "SAE inhibition at compound concentration 0.111 μM"}, "[2]": {"details": "SAE inhibition, class symbols, legend in nM"}}, "data": [{"smiles": "CCc1ccc2c(c1)[C@H](c1cc(C(=O)c3cncnc3N[C@@H]3C[C@H](COS(N)(=O)=O)[C@@H](O)C3)sc1C)OCC2", "note": "(mixture of isomers) [I-346, [(1R,2S,4R)-4-{[5-({4-[(1R)-7-ethyl-3,4-dihydro-1H-isochromen-1-yl]-5-methyl-2-thienyl}carbonyl)pyrimidin-4-yl]amino}-2-hydroxycyclopentyl]methyl sulfamate and [(1R,2S,4R)-4-{[5-({4-[(1S)-7-ethyl-3,4-dihydro-1H-isochromen-1-yl]-5-methyl-2-thienyl}carbonyl)pyrimidin-4-yl]amino}-2-hydroxycyclopentyl]methyl sulfamate]", "values": [{"measurement": "Percent Inhibition", "setting": "[1]", "result": 99, "unit": "%"}, {"measurement": "IC50", "setting": "[2]", "result": "< 10", "unit": "nM"}]}, {"smiles": "Cc1sc(C(=O)c2cncnc2N[C@@H]2C[C@H](COS(N)(=O)=O)[C@@H](O)[C@H]2O)nc1Cc1cccc(Cl)c1", "note": "[I-352, {(1R,2R,3S,4R)-4-[(5-{[4-(3-chlorobenzyl)-5-methyl-1,3-thiazol-2-yl]carbonyl}pyrimidin-4-yl)amino]-2,3-dihydroxycyclopentyl}methyl sulfamate]", "values": [{"measurement": "inhibition at 0.111 µM", "setting": "SAE inhibition at compound concentration 0.111 μM, read-out: Percent Inhibition", "result": 100, "unit": "%"}, {"measurement": "IC50", "setting": "[2]", "result": "< 10", "unit": "nM"}]}, {"smiles": "NS(=O)(=O)OC[C@H]1C[C@@H](Nc2ncncc2C(=O)c2cc(C3(c4cccc(Cl)c4)CCCO3)cs2)C[C@@H]1O", "note": "(single isomer, unassigned) [I-20b, [(1R,2S,4R)-4-{[5-({4-[(2S)-2-(3-chlorophenyl)tetrahydrofuran-2-yl]-2-thienyl}carbonyl)pyrimidin-4-yl]amino}-2-hydroxycyclopentyl]methyl sulfamate or [(1R,2S,4R)-4-{[5-({4-[(2R)-2-(3-chlorophenyl)tetrahydrofuran-2-yl]-2-thienyl}carbonyl)pyrimidin-4-yl]amino}-2-hydroxycyclopentyl]methyl sulfamate]", "values": [{"measurement": "Percent Inhibition", "setting": "Concentration 0.111 μM", "result": 99}, {"measurement": "IC50", "setting": "class symbols A/B/C", "result": "< 10", "unit": "nM"}]}, {"smiles": "NS(=O)(=O)OC[C@H]1C[C@@H](Nc2ncncc2C(=O)c2cc([C@@H]3OCC(=O)c4ccccc43)cs2)C[C@@H]1O", "note": "(mixture of isomers) [I-342, [(1R,2S,4R)-2-hydroxy-4-{[5-({4-[(1R)-4-oxo-3,4-dihydro-1H-isochromen-1-yl]-2-thienyl}carbonyl)pyrimidin-4-yl]amino}cyclopentyl]methyl sulfamate and [(1R,2S,4R)-2-hydroxy-4-{[5-({4-[(1S)-4-oxo-3,4-dihydro-1H-isochromen-1-yl]-2-thienyl}carbonyl)pyrimidin-4-yl]amino}cyclopentyl]methyl sulfamate]", "values": [{"measurement": "Percent Inhibition", "setting": "[1]", "result": 93, "unit": "%"}, {"measurement": "IC50", "setting": "[2]", "result": "< 10", "unit": "nM"}]}, {"smiles": "Cc1sc(C(=O)c2cncnc2N[C@@H]2C[C@H](COS(N)(=O)=O)[C@@H](O)C2)cc1[S@+]([O-])c1cccc(Cl)c1", "note": "(single isomer, unassigned) [I-28a, [(1R,2S,4R)-4-{[5-({4-[(R)-(3-chlorophenyl)sulfinyl]-5-methyl-2-thienyl}carbonyl)pyrimidin-4-yl]amino}-2-hydroxycyclopentyl]methyl sulfamate or [(1R,2S,4R)-4-{[5-({4-[(S)-(3-chlorophenyl)sulfinyl]-5-methyl-2-thienyl}carbonyl)pyrimidin-4-yl]amino}-2-hydroxycyclopentyl]methyl sulfamate]", "values": [{"measurement": "Percent Inhibition", "setting": "Concentration 0.111 μM", "result": 66}, {"measurement": "IC50", "setting": "class symbols A/B/C", "result": "10 to 100", "unit": "nM"}]}, {"smiles": "C=C(C)[C@@H](O)c1coc(C(=O)c2cncnc2N[C@@H]2C[C@H](COS(N)(=O)=O)[C@@H](O)C2)c1.C=C(C)[C@H](O)c1coc(C(=O)c2cncnc2N[C@@H]2C[C@H](COS(N)(=O)=O)[C@@H](O)C2)c1", "note": "(mixture of isomers) [I-197, {(1R,2S,4R)-2-Hydroxy-4-[(5-{4-[(1S)-1-hydroxy-2-methylprop-2-en-1-yl]-2-furoyl}pyrimidin-4-yl)amino]cyclopentyl)methyl sulfamate and {(1R,2S,4R)-2-Hydroxy-4-[(5-{4-[(1R)-1-hydroxy-2-methylprop-2-en-1-yl]-2-furoyl}pyrimidin-4-yl)amino]cyclopentyl}methyl sulfamate]", "values": [{"measurement": "Percent Inhibition", "setting": "Concentration 0.111 μM", "result": 69}, {"measurement": "IC50", "setting": "class symbols A/B/C", "result": "10 to 100", "unit": "nM"}]}]}
